Experimental data: patent US6211244A, “Calcium receptor-active compounds” (priority 1995, dated 2001)
“And” between values parts separate entries of the source, which are not always exact repeats. Equal values may be shown once. Where a name gives a salt, the structure may show the parent alone. Read-outs that look alike come from different tables or passages of the source.

Target: T1, human calcium receptor (Homo sapiens, UniProt P41180, R990G)
T1 construct: expressed in transfected cells; host or cells: HEK 293
T1 sequence (P41180 20-1078 R990G): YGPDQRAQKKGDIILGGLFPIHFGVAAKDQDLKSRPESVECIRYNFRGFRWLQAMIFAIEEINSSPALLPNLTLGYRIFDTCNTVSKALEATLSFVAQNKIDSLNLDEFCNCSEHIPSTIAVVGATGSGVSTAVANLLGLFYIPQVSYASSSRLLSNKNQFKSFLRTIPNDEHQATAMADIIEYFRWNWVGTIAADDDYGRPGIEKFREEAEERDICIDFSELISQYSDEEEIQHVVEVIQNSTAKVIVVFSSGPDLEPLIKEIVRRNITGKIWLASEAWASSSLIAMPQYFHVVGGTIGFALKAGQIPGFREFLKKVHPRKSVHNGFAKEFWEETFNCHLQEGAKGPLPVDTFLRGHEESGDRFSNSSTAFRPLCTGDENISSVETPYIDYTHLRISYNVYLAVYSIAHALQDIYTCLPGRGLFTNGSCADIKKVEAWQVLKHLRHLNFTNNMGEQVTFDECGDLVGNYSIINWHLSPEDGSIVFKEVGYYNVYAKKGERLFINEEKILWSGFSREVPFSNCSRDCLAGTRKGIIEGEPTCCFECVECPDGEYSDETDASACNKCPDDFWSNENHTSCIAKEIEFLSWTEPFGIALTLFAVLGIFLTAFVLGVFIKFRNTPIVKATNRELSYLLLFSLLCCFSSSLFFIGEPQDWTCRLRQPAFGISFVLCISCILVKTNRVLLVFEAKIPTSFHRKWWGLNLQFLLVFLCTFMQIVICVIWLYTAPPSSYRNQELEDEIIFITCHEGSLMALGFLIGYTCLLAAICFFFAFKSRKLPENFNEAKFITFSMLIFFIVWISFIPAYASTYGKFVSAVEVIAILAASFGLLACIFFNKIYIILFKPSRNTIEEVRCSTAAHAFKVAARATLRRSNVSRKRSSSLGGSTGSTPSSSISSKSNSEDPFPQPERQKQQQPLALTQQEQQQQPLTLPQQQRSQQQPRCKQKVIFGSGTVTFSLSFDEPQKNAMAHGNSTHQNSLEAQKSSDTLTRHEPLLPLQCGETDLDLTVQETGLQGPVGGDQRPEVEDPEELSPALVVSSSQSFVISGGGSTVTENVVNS
Experiment: increases in [Ca^2+ ]i in HEK-293 cells expressing the human calcium receptor (fura-2 loaded HEK 293/pHuPCaR4.0 cells), % activity
Format: cell-based

Row | Compound | % activity | % activity (33 ng/mL) | % activity (330 ng/mL) | % activity (3300 ng/mL) [%]
1 | CC(NC1CCc2ccccc2C1)c1ccccc1 (mixture of isomers) [Compound 4B] | 45 | 8% |  | 
2 | CC(C=Cc1ccccc1)NC(C)c1ccccc1 (mixture of isomers) [Compound 5D] |  | 18% | 62% | 
3 | CC(NC1CCc2ccccc21)c1cccc2ccccc12 (mixture of isomers) [Compound 9A] |  | 56% | 82% | 
4 | COc1cccc(C(C)NC(C)c2ccc(C(C)(C)C)cc2)c1 (mixture of isomers) [Compound 13G] |  | 82% | 128% | 111
5 | CC(NC(C)c1ccc(C(C)(C)C)cc1)c1ccccc1 (mixture of isomers) [Compound 13H] |  | 36% | 48% | 88
6 | CC(NC(C)c1ccc2ccccc2c1)c1ccc(C(C)(C)C)cc1 (mixture of isomers) [Compound 13I] |  | 3% | 52% | 85
7 | CC(C)Cc1ccc(C(C)CNC(C)c2cccc3ccccc23)cc1 (mixture of isomers) [Compound 14A] |  | 10% | 78% | 98
8 | CC(O)c1ccc(CNC(C)c2cccc3ccccc23)cc1 (mixture of isomers) [Compound 17B] |  | 61% | 92% | 
9 | CCC(NC(C)c1cccc2ccccc12)c1ccc(OC)cc1 (mixture of isomers) [Compound 17G] |  | 119% | 128% | 125
10 | Cc1cc(C(C)NC(C)c2cccc3ccccc23)ccc1OCc1ccccc1 (mixture of isomers) [Compound 25X] |  | 72% | 94% | 96
11 | COc1ccc(C(NC(C)c2cccc3ccccc23)C2CC2)cc1 (single isomer, unassigned) [Compound 17I] |  | 76% | 97% | 118
12 | COc1cccc(C(C)NCCC(C)c2ccc(Cl)cc2)c1 (centres unmarked) [5B/5C, N-[3-methyl-3-(4-chlorophenyl)propyl]-1-(3-methoxyphenyl)ethylamine] |  | 20% | 65% | 
13 | CC(NC(C)c1cc2ccccc2c2ccccc12)c1cccc2ccccc12 (centres unmarked) [10S/10T] |  | 65% | 86% | 
14 | CC(NCC1CCc2ccccc2C1)c1cccc2ccccc12 (centres unmarked) [10W/10X] |  | 61% and 53% | 98% and 81% | 
15 | COc1cccc([C@@H](C)NC(C)CCc2ccccc2Cl)c1 (some centres unmarked) [21C = 4U] |  | 76% | 114% | 134
16 | CC(NCCCc1ccccc1)c1ccccc1 (centres unmarked) [Compound 1D] |  |  | 53% | 
17 | CC(NCCCC1CCCCC1)c1ccccc1 (centres unmarked) [Compound 1T] |  |  | 76% | 
18 | CC(NCCCc1ccccc1)c1c[nH]c2ccccc12 (centres unmarked) [Compound 2Q] |  | 4% | 56% | 
19 | COc1ccccc1C(C)NCCC(c1ccccc1)c1ccccc1 (centres unmarked) [Compound 2S] |  | 29% | 67% | 
20 | CC(NCCC(c1ccccc1)c1ccccc1)c1ccccc1Cl (centres unmarked) [Compound 2X] | 15 |  | 66% | 
21 | CC(NCCC(c1ccccc1)c1ccccc1)c1cccc(Cl)c1 (centres unmarked) [Compound 2Y] |  | 10% | 59% | 
22 | CC(NCCC(c1ccccc1)c1ccccc1)c1ccccc1F (centres unmarked) [Compound 3A] |  | 7% | 41% | 
23 | CC(NCCC(c1ccccc1)c1ccccc1)c1cccc(F)c1 (centres unmarked) [Compound 3B] | 15 |  | 52% | 
24 | CC(NCCC(c1ccccc1)c1ccccc1)c1ccccc1C(F)(F)F (centres unmarked) [Compound 3D] | 45 | 4% |  | 
25 | CC(NCCCc1ccccc1)c1ccccc1 (centres unmarked) [Compound 3H] |  |  | 84% | 
26 | Cc1ccccc1C(C)NCCC(c1ccccc1)c1ccccc1 (centres unmarked) [Compound 3L] |  | 28% | 81% | 
27 | Cc1cccc(C(C)NCCC(c2ccccc2)c2ccccc2)c1 (centres unmarked) [Compound 3M] |  | 19% | 64% | 
28 | CC(NCCC(c1ccccc1)c1ccccc1)c1ccc(O)cc1 (centres unmarked) [Compound 3R] | 45 | 2% |  | 

Row | Compound | % activity | % activity (33 ng/mL) | % activity (330 ng/mL) | % activity (3300 ng/mL) [%]
29 | CC(NCCC(c1ccccc1)c1ccccc1)c1cccc2ccccc12 (centres unmarked) [Compound 3U, N-(3,3-diphenylpropyl)-(1-naphthyl)ethylamine] |  | 57% | 89% | 
30 | COc1cccc(C(C)NCc2cccc3ccccc23)c1 (centres unmarked) [Compound 3V] |  | 14% | 56% | 
31 | CC(N[C@H](C)c1ccccc1)c1cccc2ccccc12 (some centres unmarked) [Compound 4G, N-[1-(1-naphthyl)ethyl)-1-phenylethylamine] |  | 46% | 83% | 
32 | CC(NCc1cccc2ccccc12)c1ccccc1 (centres unmarked) [Compound 4I] |  | 9% | 40% | 
33 | CC(NCc1ccc2ccccc2c1)c1ccccc1 (centres unmarked) [Compound 4J] |  | 8% | 47% | 
34 | COc1cccc(C(C)NCCCc2ccccc2F)c1 (centres unmarked) [Compound 4M] |  | 34% | 68% | 
35 | COc1cccc([C@@H](C)NCCCc2ccc(F)cc2)c1 [Compound 4P] |  |  | 81% and 61% | 
36 | COc1cccc(C(C)NCCCc2ccccc2C(F)(F)F)c1 (centres unmarked) [Compound 4V] |  | 59% | 93% | 
37 | CC(COc1ccccc1)NC(C)c1ccccc1 (centres unmarked) [Compound 5G] |  | 16% | 58% | 
38 | C[C@@H](NCC=C(c1ccccc1)c1ccccc1)c1ccccc1 [Compound 5L] |  | 16% | 60% | 
39 | CC(NCC=Cc1ccccc1[N+](=O)[O-])c1ccccc1 (centres unmarked) [Compound 5M] |  | 21% | 73% | 
40 | CCOc1cccc([C@@H](C)NCCCc2ccccc2)c1 [Compound 6R, (R)-N-(3-phenylpropyl)-1-(3-ethoxyphenyl)ethylamine] |  | 52% | 94% | 
41 | CCOc1cccc([C@@H](C)NCCCc2ccccc2Cl)c1 [Compound 6T, (R)-N-[3-(2-chlorophenyl)propyl]-1-(3-ethoxyphenyl)ethylamine] |  | 78% | 129% | 123
42 | COc1cccc([C@@H](C)NCCCc2cccc(Cl)c2)c1 [Compound 6X] |  | 52% | 84% | 
43 | C[C@@H](NCCCc1ccccc1Cl)c1cccc(OC(F)(F)F)c1 [Compound 7U] |  |  | 49% | 
44 | CC(=O)c1cccc(C(C)NCCCc2ccccc2)c1 (centres unmarked) [Compound 7W] |  |  | 76% | 
45 | COc1cccc(C(C)NCCCC2CCCCC2)c1 (centres unmarked) [Compound 7X] |  |  | 85% | 
46 | COc1cc(OC)cc(C(C)NCCCc2ccccc2)c1 (centres unmarked) [Compound 8A] |  |  | 54% | 
47 | CSc1cccc(C(C)NCCCc2ccccc2)c1 (centres unmarked) [Compound 8J, N-(3-phenylpropyl)-1-(3-thiomethylphenyl)ethylamine hydrochloride] |  | 77% | 104% | 
48 | CSc1cccc(C(C)NCCCc2ccccc2Cl)c1 (centres unmarked) [Compound 8K] |  | 81% | 98% | 
49 | COc1cccc(C(C)NCCCc2cc(OC)c(OC)c(OC)c2)c1 (centres unmarked) [Compound 8S] |  | 42% | 73% | 
50 | COc1cccc(C(C)NCC=Cc2ccccc2OC)c1 (centres unmarked) [Compound 8T] |  | 55% | 85% | 
51 | COc1cccc([C@@H](C)NCCCc2ccccc2OC)c1 [Compound 8U, N-3-(2-methoxyphenyl)-1-propyl-(R)-3-methoxy-α-methylbenzylamine hydrochloride] |  | 82% | 129% | 123
52 | COc1cccc([C@@H](C)NCCCc2ccc(C)cc2)c1 [Compound 8X] |  | 40% | 75% | 
53 | CC(N[C@H](C)c1cccc2ccccc12)c1ccc2ccccc2c1 (some centres unmarked) [Compound 8Z] |  | 97% | 101% | 
54 | C[C@@H](N[C@H](C)c1cccc2ccccc12)c1ccc2ccccc2c1.Cl [Compound 9R, (R)-N-(1-(2-naphthyl)ethyl)-(R)-1-(1-naphthyl)ethylamine hydrochloride] |  | 101% | 108% | 
55 | CC(NCc1ccc(-c2ccccc2)cc1)c1cccc2ccccc12 (centres unmarked) [Compound 10N] |  | 77% | 97% | 106
